We go through one compound from US20110015226A1, “Treatment of Energy Utilization Disease” (SUMMIT CORPORATION PLC, priority 2008, published 2011).

Holding throughout (format): biochemical
Common to all, as to details: compounds tested at 0.8 mM

Experiment [1] has as its system Naringinase Penicillium decumbens. Briefly: Glycosidase inhibition: Naringinase Penicillium decumbens. The source says:
(§1) The results tabulated below were obtained using commercially available glycosidases and p-nitrophenyl-substrates using standard methods described for example by Watson et al (1997) Phytochemistry 46 255-259. All enzymes and substrates were bought from Sigma. Enzyme and substrate solutions were made using sodium phosphate buffers at the pH optima values. The enzymes used were α-D-glucosidase Saccharomyces cerevisiae, Bacillus stearothermophilus, Oryzae sativa), β-D-glucosidase (Almond), α-D-mannosidase (Jack bean), α-D-galactosidase (Green coffee beans), β-D-galactosidase (Bovine liver), α-L-fucosidase (Bovine kidney), N-acetyl-β-D-glucosaminidase (Bovine kidney, Jack bean, Aspergillus oryzae), Naringinase (Penicillium decumbens) and amyloglucosidase (Aspergillus niger). All enzymes were used with the appropriate p-nitrophenyl substrates (5 mM). Amyloglucosidase activity was measured using amylopectin (0.1%) (Merck) mixed with sodium phosphate buffer, pH 4.5 in a glass bottle, and healed in a boiling water bath for 20 minutes to dissolve with released glucose measured using ‘Trinder’ glucose detection solution (Sigma).
(§2) All enzymes and para-nitrophenyl substrates were purchased from Sigma, with the exception of beta-mannosidase which came from Megazyme. Enzymes were assayed at 27° C. in 0.1M citric acid/0.2M disodium hydrogen phosphate buffers at the optimum pH for the enzyme. The incubation mixture consisted of 10 μl enzyme solution, 10 μl of 1 mg/ml aqueous solution of extract and 50 μl of the appropriate 5 mM para-nitrophenyl substrate made up in buffer at the optimum pH for the enzyme. The reactions were stopped by addition of 70 μl 0.4M glycine (pH 10.4) during the exponential phase of the reaction, which had been determined at the beginning using uninhibited assays in which water replaced inhibitor. Final absorbances were read at 405 nm using a Versamax microplate reader (Molecular Devices). Assays were carried out in triplicate, and the values given are means of the three replicates per assay. […]

In experiment [2] the test system is β-D-mannosidase Cellullomonas fimi. Briefly: Glycosidase inhibition: β-D-mannosidase Cellullomonas fimi. On the procedure: (§3) All enzymes and para-nitrophenyl substrates were purchased from Sigma, with the exception of beta-mannosidase which came from Megazyme. Enzymes were assayed at 27° C. in 0.1M citric acid/0.2M disodium hydrogen phosphate buffers at the optimum pH for the enzyme. The incubation mixture consisted of 10 μl enzyme solution, 10 μl of 1 mg/ml aqueous solution of extract and 50 μl of the appropriate 5 mM para-nitrophenyl substrate made up in buffer at the optimum pH for the enzyme. The reactions were stopped by addition of 70 μl 0.4M glycine (pH 10.4) during the exponential phase of the reaction, which had been determined at the beginning using uninhibited assays in which water replaced inhibitor. Final absorbances were read at 405 nm using a Versamax microplate reader (Molecular Devices). Assays were carried out in triplicate, and the values given are means of the three replicates per assay. (See Watson, A. A., Nash, R. J., Wormald, M. R., Harvey, D. J., Dealler, S., Lees, E., Asano, N., Kizu, H., Kato, A., Griffiths, R. C., Cairns, A. J. and Fleet, G. W. J. (1997). Glycosidase-inhibiting pyrrolidine alkaloids from Hyacinthoides non-scripta. Phytochemistry 46 (2): 255-259.)

The target of experiment [3] is T1, Amyloglucosidase Aspergillus niger (Aspergillus niger, UniProt P69328).
T1 construct: purchased Sigma
T1 sequence (P69328 25-640): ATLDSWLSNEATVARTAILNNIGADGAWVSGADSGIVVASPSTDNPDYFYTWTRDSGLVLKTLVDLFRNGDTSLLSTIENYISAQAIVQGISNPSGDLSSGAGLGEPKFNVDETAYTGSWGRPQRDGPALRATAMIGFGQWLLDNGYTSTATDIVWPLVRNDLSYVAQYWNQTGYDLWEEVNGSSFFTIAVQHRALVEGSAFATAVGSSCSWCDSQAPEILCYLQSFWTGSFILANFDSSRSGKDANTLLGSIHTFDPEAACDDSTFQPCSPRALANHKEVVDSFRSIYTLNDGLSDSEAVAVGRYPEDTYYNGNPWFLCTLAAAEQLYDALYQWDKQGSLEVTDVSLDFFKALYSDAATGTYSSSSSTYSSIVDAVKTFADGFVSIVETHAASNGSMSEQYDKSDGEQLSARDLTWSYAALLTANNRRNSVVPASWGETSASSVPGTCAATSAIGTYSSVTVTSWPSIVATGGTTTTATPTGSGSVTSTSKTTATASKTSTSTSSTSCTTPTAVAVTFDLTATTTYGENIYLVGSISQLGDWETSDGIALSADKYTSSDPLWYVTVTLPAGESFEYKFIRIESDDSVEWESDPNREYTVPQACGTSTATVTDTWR
Briefly: Glycosidase inhibition: Amyloglucosidase Aspergillus niger.
From the text: as §1, §3

Experiment [4] concerns β-D-glucosidase (Almond). Briefly: Glycosidase inhibition: β-D-glucosidase (Almond).
From the text: as §1, §2

Experiment [5] concerns the target α-D-glucosidase (Bacillus) (Geobacillus stearothermophilus, UniProt A0ACH1E9U3). Briefly: Glycosidase inhibition: α-D-glucosidase (Bacillus).
From the text: as §1, §3

Experiment [6] has as its target T2, α-D-glucosidase (Yeast) (Saccharomyces cerevisiae, UniProt P53341).
T2 construct: purchased Sigma
Briefly: Glycosidase inhibition: α-D-glucosidase (Yeast).
From the text: as §1, §3

In experiment [7] the target is T3, α-D-galactosidase Green coffee bean (Coffea arabica, UniProt Q42656).
T3 construct: α-D-galactosidase (Green coffee beans); purchased Sigma; host or cells: green coffee beans
T3 sequence (Q42656 16-378): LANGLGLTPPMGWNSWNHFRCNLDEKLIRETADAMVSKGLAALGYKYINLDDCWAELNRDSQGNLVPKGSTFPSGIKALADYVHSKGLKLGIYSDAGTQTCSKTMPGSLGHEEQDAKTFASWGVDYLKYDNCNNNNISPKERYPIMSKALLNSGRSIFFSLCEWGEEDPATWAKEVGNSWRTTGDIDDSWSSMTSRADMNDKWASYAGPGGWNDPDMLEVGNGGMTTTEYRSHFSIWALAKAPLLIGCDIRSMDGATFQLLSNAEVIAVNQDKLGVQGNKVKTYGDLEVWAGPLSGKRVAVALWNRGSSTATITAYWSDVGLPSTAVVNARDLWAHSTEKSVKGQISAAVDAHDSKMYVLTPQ
As to the kind of experiment: Glycosidase inhibition: α-D-galactosidase Green coffee bean.
From the text: as §1, §3

Experiment [8] has as its system N-acetyl-β-D-glucosaminidase (Bovine kidney). Briefly: Glycosidase inhibition: N-acetyl-β-D-glucosaminidase (Bovine kidney).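 Note: enzyme activity followed by cleavage of the matching p-nitrophenyl glycoside (5 mM) in phosphate buffer set to the enzyme's optimal pH.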
The target of experiment [9] is T4, N-acetyl-β-D-glucosaminidase (A. oryzae) (Aspergillus oryzae, UniProt Q8J2T0).
T4 construct: purchased Sigma
T4 sequence (Q8J2T0 97-600): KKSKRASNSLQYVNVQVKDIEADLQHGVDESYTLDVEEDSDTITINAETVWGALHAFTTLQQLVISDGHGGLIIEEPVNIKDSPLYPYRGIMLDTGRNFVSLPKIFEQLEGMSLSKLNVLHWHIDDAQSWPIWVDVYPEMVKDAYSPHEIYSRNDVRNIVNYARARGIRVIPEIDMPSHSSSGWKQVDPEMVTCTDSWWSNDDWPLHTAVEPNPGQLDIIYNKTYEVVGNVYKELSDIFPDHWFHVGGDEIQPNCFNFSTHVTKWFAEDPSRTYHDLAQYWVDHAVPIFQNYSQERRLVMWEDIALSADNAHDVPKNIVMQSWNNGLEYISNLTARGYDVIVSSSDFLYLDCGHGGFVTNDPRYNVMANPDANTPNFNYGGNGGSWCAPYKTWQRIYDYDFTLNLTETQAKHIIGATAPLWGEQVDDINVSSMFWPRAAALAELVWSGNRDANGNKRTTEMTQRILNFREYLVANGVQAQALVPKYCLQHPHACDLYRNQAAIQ
Briefly: Glycosidase inhibition: N-acetyl-β-D-glucosaminidase (A. oryzae).
From the text: as §1, §3

For experiment [10], the system named is N-acetyl-β-D-glucosaminidase (Jack bean). As to the kind of experiment: Glycosidase inhibition: N-acetyl-β-D-glucosaminidase (Jack bean).
From the text: as §1, §2

The subject of experiment [11] is β-D-galactosidase Bovine liver. Briefly: Glycosidase inhibition: β-D-galactosidase Bovine liver.
From the text: as §1, §3

The target in experiment [12] is T5, β-Glucuronidase Bovine liver (Bos taurus, UniProt A3KMY8).
T5 construct: The assay involved the use of Bovine liver β-glucuronidase; purchased Sigma; host or cells: bovine liver
T5 sequence (A3KMY8 1-652): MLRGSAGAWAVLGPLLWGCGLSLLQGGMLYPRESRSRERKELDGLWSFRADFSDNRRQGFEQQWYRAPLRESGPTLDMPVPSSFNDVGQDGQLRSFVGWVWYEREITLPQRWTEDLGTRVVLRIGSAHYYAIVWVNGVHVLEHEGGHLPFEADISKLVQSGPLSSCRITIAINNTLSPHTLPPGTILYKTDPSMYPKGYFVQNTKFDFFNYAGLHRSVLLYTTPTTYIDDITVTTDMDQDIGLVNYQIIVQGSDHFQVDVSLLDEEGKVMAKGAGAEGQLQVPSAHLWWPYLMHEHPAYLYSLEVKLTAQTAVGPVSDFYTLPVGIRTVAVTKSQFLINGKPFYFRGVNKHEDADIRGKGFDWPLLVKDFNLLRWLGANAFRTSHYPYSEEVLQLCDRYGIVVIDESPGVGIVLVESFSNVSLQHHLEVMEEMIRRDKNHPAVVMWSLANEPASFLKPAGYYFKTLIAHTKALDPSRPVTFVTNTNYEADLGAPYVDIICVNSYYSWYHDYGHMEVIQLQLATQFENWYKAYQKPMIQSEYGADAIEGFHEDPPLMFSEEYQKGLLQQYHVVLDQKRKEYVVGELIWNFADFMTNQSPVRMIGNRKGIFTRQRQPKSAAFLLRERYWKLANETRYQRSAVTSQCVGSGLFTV
Briefly: Glycosidase inhibition: β-Glucuronidase Bovine liver.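 Note: bovine liver β-glucuronidase acting on p-nitrophenyl β-D-glucuronide substrate in citric acid/disodium hydrogen phosphate buffer, pH 5.0, 27 °C, mean of triplicate runs.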

The target in experiment [13] is T6, α-D-glucosidase (Rice) (Oryza sativa subsp. japonica, UniProt Q653V7).
T6 construct: purchased Sigma
T6 sequence (Q653V7 34-885): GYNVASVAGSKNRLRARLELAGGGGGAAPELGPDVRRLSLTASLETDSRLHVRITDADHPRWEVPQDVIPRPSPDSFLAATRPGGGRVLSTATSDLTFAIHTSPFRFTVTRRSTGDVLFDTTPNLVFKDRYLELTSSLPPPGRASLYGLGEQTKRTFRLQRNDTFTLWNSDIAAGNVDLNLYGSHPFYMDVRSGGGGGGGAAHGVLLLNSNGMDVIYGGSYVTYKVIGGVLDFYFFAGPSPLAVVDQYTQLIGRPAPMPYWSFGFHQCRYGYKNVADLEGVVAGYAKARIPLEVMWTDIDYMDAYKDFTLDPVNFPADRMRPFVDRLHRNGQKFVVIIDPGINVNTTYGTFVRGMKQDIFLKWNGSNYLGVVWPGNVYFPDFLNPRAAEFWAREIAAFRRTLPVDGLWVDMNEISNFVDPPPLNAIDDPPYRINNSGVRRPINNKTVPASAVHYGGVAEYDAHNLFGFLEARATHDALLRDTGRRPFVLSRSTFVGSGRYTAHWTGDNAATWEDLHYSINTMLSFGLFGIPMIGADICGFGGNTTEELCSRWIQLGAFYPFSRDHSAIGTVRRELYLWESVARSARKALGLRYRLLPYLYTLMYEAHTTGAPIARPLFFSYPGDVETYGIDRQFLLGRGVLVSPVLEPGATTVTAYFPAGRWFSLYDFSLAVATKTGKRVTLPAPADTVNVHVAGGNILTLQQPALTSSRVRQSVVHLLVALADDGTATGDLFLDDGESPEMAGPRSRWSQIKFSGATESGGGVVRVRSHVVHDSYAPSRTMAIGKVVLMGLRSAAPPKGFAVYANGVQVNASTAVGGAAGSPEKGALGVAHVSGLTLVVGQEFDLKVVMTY
Briefly: Glycosidase inhibition: α-D-glucosidase (Rice).

T2 sequence (P53341 whole entry): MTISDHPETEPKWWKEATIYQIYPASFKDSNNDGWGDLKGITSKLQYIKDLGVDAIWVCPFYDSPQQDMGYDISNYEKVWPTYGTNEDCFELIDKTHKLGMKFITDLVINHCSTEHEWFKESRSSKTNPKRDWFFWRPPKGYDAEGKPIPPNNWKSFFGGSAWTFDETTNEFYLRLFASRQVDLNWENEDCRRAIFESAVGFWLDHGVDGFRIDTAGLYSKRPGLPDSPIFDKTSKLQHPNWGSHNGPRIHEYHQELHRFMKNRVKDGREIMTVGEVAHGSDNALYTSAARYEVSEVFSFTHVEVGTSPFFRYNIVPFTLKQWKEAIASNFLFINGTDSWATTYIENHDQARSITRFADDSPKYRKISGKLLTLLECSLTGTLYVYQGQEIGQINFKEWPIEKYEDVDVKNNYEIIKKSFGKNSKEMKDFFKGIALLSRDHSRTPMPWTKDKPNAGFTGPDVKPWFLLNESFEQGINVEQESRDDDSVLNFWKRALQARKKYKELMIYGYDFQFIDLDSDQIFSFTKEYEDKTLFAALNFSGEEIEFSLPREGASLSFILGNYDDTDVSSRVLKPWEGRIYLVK
Sequence of α-D-glucosidase (Bacillus) (A0ACH1E9U3 entry or part of it): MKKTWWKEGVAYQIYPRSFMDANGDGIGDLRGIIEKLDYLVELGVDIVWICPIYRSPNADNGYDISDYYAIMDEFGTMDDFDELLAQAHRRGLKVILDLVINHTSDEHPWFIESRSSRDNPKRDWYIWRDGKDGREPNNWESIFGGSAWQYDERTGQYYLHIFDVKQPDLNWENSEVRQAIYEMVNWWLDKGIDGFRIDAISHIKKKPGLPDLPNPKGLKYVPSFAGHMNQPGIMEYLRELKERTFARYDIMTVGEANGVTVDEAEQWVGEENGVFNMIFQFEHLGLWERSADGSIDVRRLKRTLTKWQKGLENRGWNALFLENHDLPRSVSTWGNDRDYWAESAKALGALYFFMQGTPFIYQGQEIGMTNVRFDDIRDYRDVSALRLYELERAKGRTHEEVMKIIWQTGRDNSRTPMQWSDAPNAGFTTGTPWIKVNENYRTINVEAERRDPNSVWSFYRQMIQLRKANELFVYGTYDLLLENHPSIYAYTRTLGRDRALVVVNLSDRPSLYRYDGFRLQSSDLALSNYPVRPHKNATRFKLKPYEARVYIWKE

As a reminder, the inhibition is the percentage by which the read-out fell short of the control. Low readings indicate little suppression, high ones strong suppression. On to `OCCN1C[C@H](O)[C@@H](O)[C@H](O)[C@H]1CO` [Miglitol, reference compound], for which the “% inhibition, Naringinase Penicillium decumbens” value in [1] was found to be 26%. For the same compound, the “% inhibition, β-D-mannosidase Cellullomonas fimi” value in experiment [2] is “NI (NI = no inhibition)”. The inhibition at 800 µM in experiment [3] is 78%; in experiment [5], 83%; in [6], < 5%; in experiment [7], 19%; in experiment [9], < 5%; in experiment [12], < 5%. For the same compound, in [13], the inhibition at 800 µM came out at 100%. In experiment [4], the “% inhibition, β-D-glucosidase (Almond)” value was 99%. Moreover, the “% inhibition, N-acetyl-β-D-glucosaminidase (Bovine kidney)” value in experiment [8] was “NI (NI = no inhibition)”. In [10], the “% inhibition, N-acetyl-β-D-glucosaminidase (Jack bean)” value is listed as “NI (NI = no inhibition)”. Moreover, the “% inhibition, β-D-galactosidase Bovine liver” value in experiment [11] is listed as 87%.
